Data from patent EP0176444A1, “Process for the preparation of derivatives of 4H-1,2,4-triazole, triazoles so obtained, their use as medicaments, and pharmaceutical compositons containing them” (ROUSSEL-UCLAF, priority 1984, dated 1986).

Columns and labels:
[1] = test system: arthrite chronique à l'adjuvant; assay: Anti-inflammatory activity: chronic adjuvant arthritis (preventive treatment); assay type: in vivo, rat
Procedure: L'injection d'adjuvant du type Freund dans une patte postérieure provoque, chez le rat, l'apparition rapide d'une lésion inflammatoire primaire dans cette patte, puis, après un temps de latence de 13 à 15 jours, le déclenchement d'une arthrite secondaire affectant notamment l'autre patte postérieure. Le test est pratiqué sur des rats mâles âgés de 42 à 50 jours, qui reçoivent en injection intraplantaire, 0,1 ml d'adjuvant de type "Freund" (suspension dans l'huile de vaseline de 6 mg par ml de mycobacterium butyricum tués).
Les animaux reçoivent le produit étudié, par voie orale, du jour 0 (jour de l'injection de l'adjuvant) jusqu'à la veille du sacrifice, pratiqué le jour 17. Des animaux témoins arthritiques, des animaux témoins normaux ne reçoivent que le véhicule. Les critères d'appréciation de l'activité des substances étudiées sont les augmentations de volume des pattes postérieures non injectées (inflammation secondaire) par rapport au volume moyen des pattes correspondantes de témoins normaux.
On détermine la DA50, c'est-à-dire la dose qui diminue de 50% les augmentations de volume des pattes postérieures des animaux traités par rapport aux animaux témoins.

[2] = test system: mouvements répétés d'étirement et de torsion; assay: Analgesic activity: acetic acid-induced stretching (writhing) test, Koster; assay type: in vivo, souris; conditions: 0.25 h; mouse, oral route half an hour before i.p. acetic acid 100 mg/kg; stretches counted for 15 min; dose giving 50 % decrease in number of stretches vs controls; read-out: DA50 (the source's name)
Description: Le test employé est basé sur le fait signalé par R. KOSTER et Coll., (Fed. Proc. 1959, 16412) selon lequel l'injection intrapéritonéale d'acide acétique provoque, chez la souris, des mouvements répétés d'étirement et de torsion pouvant persister pendant plus de six heures. Les analgésiques préviennent ou diminuent ce syndrome qui peut être considéré comme l'extériorisation d'une douleur abdominale diffuse. On utilise une solution d'acide acétique à 1 % dans l'eau. La dose déclenchant le syndrome est dans ces conditions de 0,01 cm^3/g, soit 100 mg/kg d'acide acétique.
Le produit étudié est administré par voie buccale une demi-heure avant l'injection d'acide acétique, les souris étant à jeun depuis la veille de l'expérience.
Les étirements sont observés et comptés pour chaque souris pendant une période d'observation de quinze minutes commençant aussitôt après l'injection d'acide acétique.
Les résultats sont exprimés au moyen de la DA50, c'est-à-dire la dose qui permet d'obtenir une diminution de 50 % du nombre des étirements par rapport aux animaux témoins.

Compound: COc1ccc(-n2c(-c3ccc(N(C)C)cc3)nnc2C(C)O)cc1 (stereo not drawn) [5-/4-(diméthylamino) phényl/ 4-(4-méthoxyphényl)α-méthyl 4H-1,2,4-triazole 3-méthanol]
- activité anti-inflammatoire ([1]; general statement in the description: models of chronic inflammation): une certaine activité anti-infiammatoire

Compound: COc1ccc(-n2c(-c3ccc(N(C)C)cc3)nnc2[C@H](C)O)cc1 [Exemple 11, 5-/4-(diméthylamino)-phényl/ 4-(4-méthoxyphényl)α-méthyl 4H-1,2,4-triazol-3-méthanol]
- ED50 [2]: 4 mg/kg
- activité anti-inflammatoire (arthrite chronique à l'adjuvant) ([1]; male rats, oral route from day 0 to the day before sacrifice on day 17, volume increase of non-injected hind paws (secondary inflammation), result given in words only): activité notable
